From patent US20240173432A1, “Compositions and Methods for Treatment of Myotonic Dystrophy Type 1 with CRISPR/SluCas9” (Vertex Pharmaceuticals Incorporated, priority 2021, published 2024)

Experiments:
[1] = system: 3′ UTR of the human DMPK gene; experiment: Single-cut screening: indel editing efficiency by Sanger sequencing and ICE analysis in primary DM1 patient myoblasts; type: cell-based; conditions: vehicle-treated samples; for Indel efficiency: single SluCas9 sgRNA RNP in primary DM1 patient myoblasts, Sanger sequencing and ICE analysis; for indel efficiency (Sanger sequencing and ICE analysis): single-cut, SluCas9 RNP, 72 hrs post nucleofection, wild-type allele
Method in brief: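 Indels were estimated by ICE from Sanger chromatograms of PCR amplicons covering the DMPK 3′ UTR wild-type allele, using only vehicle-treated samples; sgRNAs with R2<0.9 are flagged. Samples came from primary DM1 patient myoblasts (2 × 10^5) harvested 72 h after nucleofection with 30 pmol SluCas9 and 90 pmol single sgRNA RNP.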

[2] = system: CUG foci in primary DM1 patient myoblasts; experiment: Single-cut screening: FISH staining of CUG RNA foci; type: cell-based, human; conditions: single sgRNA, primary DM1 patient myoblasts; for % of CUG foci free nuclei (DNA-PKi): DNA-PKi treated
Method in brief: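 CD56-purified primary DM1 patient myoblasts nucleofected with SluCas9:sgRNA RNP (30:90 pmol, single-cut), then DMSO or 3 μM DNA-PK inhibitor for 48 h. At 72 h post-nucleofection, cells fixed and stained for CUG foci with Cy3-PNA(CAG)5 probe (1 ng/μL, 80 °C), co-stained for MBNL1 and Hoechst, imaged by high-content confocal microscopy.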

[3] = system: CAG foci in primary DM1 patient myoblasts; experiment: Single-cut screening: CAG foci staining; type: cell-based, human; conditions: single sgRNA; for % of CAG foci positive nuclei (DNA-PKi): DNA-PKi treated
Method in brief: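 Primary DM1 patient myoblasts were PFA-fixed and hybridized with […] (1 ng/μL, 15 min at 80° C) in 30% formamide/2×SSC, followed by anti-MBNL1 immunostaining and Hoechst counterstain. CAG RNA foci were quantified by high-content confocal imaging after single-cut SuCas9 sgRNA editing.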

Substance	Indel efficiency [1]	indel efficiency (Sanger sequencing and ICE analysis) [1]	% of CUG foci free nuclei (DNA-PKi) [2]	% of CUG foci free nuclei (Vehicle) [2]	% of CAG foci positive nuclei (DNA-PKi) [3]	% of CAG foci positive nuclei (Vehicle) [3]
GTCCAGAGCTTTGGGCAGATGG (listed as DNA, chemistry not fully specified) [SluD100]	81%	high editing IN4DEL efficiency	37.39%	22.06%	3.35%	2.15%
GTCGGGGGTGGGGGTCCTAGGT (guide RNA; chemistry not fully specified) [SluD85]	28%	–	29.51%	17.4%	2.82%	2.51%
GTGCGTGGAGGATGGAACACGG (guide RNA; chemistry not fully specified) [SluD19]	24%	–	27.72%	12.59%	1.68%	2.32%
GTGGATGGGCAAACTGCAGGCC (guide RNA; chemistry not fully specified) [SluD13]	55%	–	42.02%	15.93%	2.77%	4.07%
GTGGGGACAGACAATAAATACC (listed as DNA, chemistry not fully specified) [SluD83]	70%	high editing IN4DEL efficiency	34%	19.15%	1.51%	1.64%
SluD101: downstream SluCas9 sgRNA, presumably SEQ ID NO 167; sequence not in the shown tables (guide AGTCCAGAGCTTTGGGCAGATG; listed as DNA, chemistry not fully specified)	38%	–	33.61%	21.35%	2.93%	2.09%
TAGCggccggggagggaggggc (guide RNA; as printed in the source, key not given here) [SluU49]	0%	–	38.7%	7.53%	1.44%	1.03%
TCAGCCTGGCCGAAAGAAAGAA (guide RNA; chemistry not fully specified) [SluD04]	1%	–	19.38%	13.29%	1.94%	1.17%
TCAGTGCATCCAAAACGTGGAT (guide RNA; chemistry not fully specified) [SluD76]	20%	–	29.87%	15.78%	2.16%	1.73%
TCCAAAACGTGGATTGGGGTTG (guide RNA; chemistry not fully specified) [SluD74]	56%	–	31.37%	10.6%	1.55%	2.27%
TCCGAGAGCAGCGCAAGTGAGG (guide RNA; chemistry not fully specified) [SluD51]	33%	–	28.86%	14.34%	2.13%	2.15%
TCCGGGCCCGCCCCCTAGCggc (guide RNA; as printed in the source, key not given here) [SluU36]	24%	–	40.62%	11.72%	1.96%	1.05%
TCGCGCCAGACGCTCCCCAGAG (guide RNA; chemistry not fully specified) [SluD35]	0%	–	12.47%	6.61%	1.13%	1.04%
TCGGCCAGGCTGAGGCCCTGAC (guide RNA; chemistry not fully specified) [SluD05]	22%	–	26.99%	26.95%	1.1%	1.42%
TCTTGTGCATGACGCCCTGCTC (guide RNA; chemistry not fully specified) [SluD31]	63%	–	23.95%	14.17%	3.21%	3.06%
TGCACTGAGACCCCGACATTCC (guide RNA; chemistry not fully specified) [SluD79]	2%	–	25.61%	11.48%	1.79%	0.82%
TGCGCTGCTCTCGGAGCCCCAG (guide RNA; chemistry not fully specified) [SluD54]	26%	–	33.12%	10.7%	2.85%	2.11%
TGCTTTTGCCAAACCCGCTTTT (guide RNA; chemistry not fully specified) [SluD39]	39%	–	31.63%	9.15%	1.68%	1.95%
TGGAAGACTGAGTGCCCGGGGC (guide RNA; chemistry not fully specified) [SluU14]	52%	–	58.84%	29.12%	1.63%	1.02%
TGGAGGATGGAACACGGACGGC (listed as DNA, chemistry not fully specified) [SluD18]	75%	high editing IN4DEL efficiency	31.47%	15.38%	1.55%	2.71%
TGGGCGGAGACCCACGCTCGGA (guide RNA; chemistry not fully specified) [SluU25]	38%	–	47.96%	23.15%	1.29%	0.92%
TGTCTTCGACTCCGGGGCCCCG (listed as DNA, chemistry not fully specified) [SluU06]	81%	high editing IN4DEL efficiency	67.15%	25.49%	1.1%	1.01%
TGTGAACTGGCAGGCGGTGGGC (guide RNA; chemistry not fully specified) [SluU17]	32%	–	67.55%	21.96%	1.28%	1.5%
TGTGATCCGGGCCCGCCCCCTA (guide RNA; chemistry not fully specified) [SluU33]	26%	–	57.35%	24.67%	1.3%	1.14%
TTATTCGCGAGGGTCGGGGGTG (guide RNA; chemistry not fully specified) [SluD89]	0%	–	11.37%	10.23%	2.54%	0.61%
TTTATTCGCGAGGGTCGGGGGT (guide RNA; chemistry not fully specified) [SluD91]	33%	–	21.28%	22.42%	4.23%	1%
TTTGCACTTTGCGAACCAACGA (guide RNA; chemistry not fully specified) [SluD29]	35%	–	28.37%	7.97%	2.38%	1.72%
